Measurements: US6703198B1, “Methods of diagnosing alagille syndrome” (The University of Washington, priority 1997, dated 2004)
Where “and” joins values, the source holds several entries; their conditions need not be identical. Identical values can stand only once. Entries after “also recorded” stand apart in the source; their conditions may differ. Where no end group is shown, it is not given here.

What was measured:
[1] = tested on: full-length Notch1-expressing 32D cells; assay: G-CSF-induced granulocytic differentiation of full-length Notch1-expressing 32D myeloid progenitor clones in the presence of hJAGGED1 peptides; type: cell-based, mouse; settings: 10 μM peptide, 20 ng/ml G-CSF, FIG. 4
Method: The ability of the hJAGGED1 HS-27a human stromal cell line to effect differentiation of hematopoietic progenitors was analyzed using the interleukin-3 (IL-3)-dependent myeloid cell line, 32D. The 32D cell line, which was derived from normal mouse bone marrow, is a heterogeneous cell line with individual cells having characteristics of myeloid cells at various early stages of maturation. 32D cells proliferate as undifferentiated blasts in the presence of IL-3, but differentiate into mature granulocytes when stimulated with granulocyte colony stimulating factor (G-CSF; Valtieri et al. Immunol. 138:3829-3835 (1987), which is incorporated herein by reference), thereby providing a system for analyzing factors that may affect myeloid differentiation.
The HS-27a, HS-23 and HS-5 human stromal cell lines were maintained in RPMI containing 10% FCS as described in Roecklein and Torok-Storb, supra, 1995. 32D cells were maintained in Iscove's Modified Dulbecco's Medium (IMDM) with 10% fetal bovine serum (FBS) and 10% WCM as a source of IL-3. For differentiation experiments, 32D cell lines were harvested in log phase, washed, counted, and replated at constant density (2×10^5 cells/ml, 4 ml/well) in 6-well plates in IMDM, 10% FBS, 0.5% WCM and 20 ng/ml recombinant human G-CSF from Amgen (Thousand Oaks, Calif.). Aliquots of […] were removed daily for analysis and replaced with fresh media. Viable cells were counted, and Wright stained cytospins were evaluated for granulocytic differentiation as follows. […] Criteria for granulocytic differentiation included nuclear segmentation, an increased cytoplasmic to nuclear ratio, and increased eosinophilia and granularity of the cytoplasm. […]
Three peptides corresponding to different regions of the hJAGGED1 molecule were analyzed for their effect on differentiation of Notch1-expressing 32D cells treated with G-CSF. […]
Peptide SEQ ID NO:9 (“J-A”) has the sequence […]. […] Differentiation of 32D cells in the presence of hJAGGED peptides was analyzed as described above. […]

[2] = tested on: mouse hematopoietic progenitor cells (Sca-1+ lin-); assay: Number of G-CFU formed from mouse hematopoietic progenitor cells treated with G-CSF and cell culture supernatant; type: cell-based; settings: for Number of CFU-G-CSF, Average: average of samples 1-4, control BHK supernatant about 60
Method: A soluble fragment of hJAGGED1 (SEQ ID NO:7), which contains the extracellular domain of hJAGGED1 including the signal peptide, DSL region, EGF-like repeats and cysteine-rich region, was prepared by amplifying a portion of the hJAGGED1 cDNA with PCR primers 420 (SEQ ID NO:20; […]) and 421 (SEQ ID NO:21; […]). The hJAGGED1 cDNA fragment, corresponding to residues 1 to 1010, was subcloned into expression vector pDX to generate pDX-hJg1.Ex. After transfection into BHK and COS cells, the cell culture supernatant was assayed for the ability to effect the number of G-CFU formed from mouse hematopoietic progenitor cells ([…] lin^−), which were prepared by removing cells that stained with anti-Gr-1, anti-CD4, anti-CD11b, anti-CD2, anti-CD45R and anti-Ter-119 and then positively selecting Sca-1^+ cells with anti-Sca-1.

Substance	differentiation of full-length Notch1-expressing 32D clones in the presence of G-CSF and peptide [1]	Number of CFU-G-CSF, Average ([2]; Sca-1+ lin- cells treated with G-CSF, listed as Supernatant of BHK cells transfected with pDX-hJg1.Ex)	Number of CFU-G-CSF, Average ([2]; Sca-1+ lin- cells treated with G-CSF, listed as supernatant from BHK cells transfected with the hJAGGED1 extracellular domain co)	granulocytic differentiation of mouse hematopoietic progenitor cells ([2]; conclusion from Table 2)	Number of CFU-G-CSF ([2]; individual samples, Sca-1+ lin- cells treated with G-CSF, BHK cell supernatant, listed as Supernatant of BHK cells transfected with pDX-hJg1.Ex)
CDDYYYGFGCNKFCRPR (cysteine pairing not given here) [peptide SEQ ID NO:9, 17-mer, residues 188 to 204 of hJAGGED1, portion of the DSL domain]	significantly inhibited	–	–	–	–
KRRKPGSHTHSASEDNTTN [peptide SEQ ID NO:11, residues 1096 to 1114 of hJAGGED1, hydrophilic portion of the intracellular domain]	comparable to that observed with G-CSF alone; also recorded: unaffected	–	–	–	–
CRQGCSPKHGSCKLPGDCRCQYG [peptide SEQ ID NO:10, residues 235 to 257 of hJAGGED1, part of EGF-repeat 1 in the extracellular domain]	comparable to that observed with G-CSF alone; also recorded: unaffected	–	–	–	–
hJAGGED1 fragment SEQ ID NO:7: soluble fragment of hJAGGED1, residues 1 to 1010 (extracellular domain), tested as supernatant of transfected BHK cells	–	24	about 24	inhibits granulocytic differentiation	19 and 34 and 20 and 23
